Patent US11649502B2, “Exosomal microRNA in serum as an indicator for the activation of brown and beige fat tissue (BAT)” (RHEINISCHE FRIEDRICH-WILHELMS-UNIVERSITÄT BONN, priority 2015, dated 2023)

How the values were obtained:
C57BL/6J wild type mice = test: qPCR of exosomal miRNAs in mouse serum after BAT activation; format: in vivo
Description: Cold exposure was performed by housing 12 week old male mice at 4° C. for 7 days. The β3-adrenergic agonist CL-316,243 (#1499, Tocris, Wiesbaden, GER, 0.2 mg/mL in 0.9 W/V % NaCl) was administered by subcutaneous injection (1 μg per g body weight) for 7 days. Control-treated C57BL/6J mice received vehicle injections (0.9% NaCl) correspondingly. Blood collections were performed after 4 hours of fasting.

UCP-1 [1] = test: UCP-1 expression after NE treatment in primary murine white adipocytes; format: cell-based, mouse; conditions: primary murine white adipocytes treated with NE
UCP-1 [2] = test: UCP-1 expression after NE treatment in 3T3-L1 cells; format: cell-based; conditions: 3T3-L1 cells after NE treatment
Text: The supernatant was withdrawn and used for exosome isolation.

[3] = serum of mice with active BAT (CL-316,243 or cold)

Structure (SMILES)	miR-133a in serum-derived exosomes (C57BL/6J wild type mice; CL-treated mice, 1 μg per g body weight s.c. for 7 days)	miR-34c* in serum exosomes (qPCR) (C57BL/6J wild type mice; [3])	miR-92a in serum exosomes (qPCR) (C57BL/6J wild type mice; [3])	UCP-1 expression (UCP-1 [1])	UCP-1 expression (UCP-1 [2])
C[C@H](Cc1ccc2c(c1)OC(C(=O)[O-])(C(=O)[O-])O2)NC[C@H](O)c1cccc(Cl)c1.[Na+].[Na+] [CL]	down-regulated	significantly up-	down-regulated		
NC[C@H](O)c1ccc(O)c(O)c1 [NE, norepinephrine]				significant increase	did not significantly increase
